Source: patent publication US7491722B2, “Pyridazin-3(2H)-one derivatives” (Laboratorios Almirall S.A., priority 2002, dated 2009)

Test system: PDE4
Assay: PDE4 Assay Procedure ([3H]-cAMP SPA)
Type: biochemical
Method: Compounds to be tested were resuspended in DMSO at a stock concentration of 1 mM. The compounds were tested at different concentrations varying from 10 μM to 10 pM to calculate an IC50. These dilutions were done in 96-well plates. In some cases, plates containing diluted compounds were frozen before being assayed. In these cases, the plates were thawed at room temperature and stirred for 15 minutes.
Ten microliters of the diluted compounds were poured into a “low binding” assay plate. Eighty microliters of reaction mixture containing 50 mM Tris pH 7.5, 8.3 mM MgCl2, 1.7 mM EGTA, and 15 nM [3H]-cAMP were added to each well. The reaction was initiated by adding ten microliters of a solution containing PDE4. The plate was then incubated under stirring for 1 hour at room temperature. After incubation the reaction was stopped with 50 microlitres of SPA beads, and the reaction was allowed to incubate for another 20 minutes at room temperature before measuring radioactivity using standard instrumentation.
The reaction mixture was prepared by adding 90 ml of H2O to 10 ml of 10× assay buffer (500 mM Tris pH 7.5, 8.3 mM MgCl2, 17 mM EGTA), and 40 microlitres 1 μCi/μL [3H]-cAMP. SPA beads solution was prepared by adding 500 mg to 28 ml H2O for a final concentration of 20 mg/ml beads and 18 mM zinc sulphate.

Compared with `CCn1nc(-c2ccncc2)c(C(C)=O)c(Nc2cccc3ccccc23)c1=O` [Example 32, 5-Acetyl-2-ethyl-4-(1-naphthylamino)-6-pyridin-4-ylpyridazin-3(2H)-one], `CCn1nc(-c2cccnc2)c(C(C)=O)c(Nc2cccc3ccccc23)c1=O` [Example 4, 5-Acetyl-2-ethyl-4-(1-naphthylamino)-6-pyridin-3-ylpyridazin-3(2H)-one] is 12-fold higher in IC50: 0.59 nM for the first, 6.8 nM for the second. The first is the more potent here.

First: CC(=O)c1c(-c2cccc(F)c2)nn(CC2CC2)c(=O)c1Nc1cccnc1 [Example 92, 5-Acetyl-2-cyclopropylmethyl-6-(3-fluorophenyl)-4-(pyridin-3-ylamino)-pyridazin-3(2H)-one]
Second: CCn1nc(-c2cccnc2)c(C(C)=O)c(Nc2cccc(F)c2)c1=O [Example 1, 5-Acetyl-2-ethyl-4-[(3-fluorophenyl)amino]-6-pyridin-3-ylpyridazin-3(2H)-one]
The IC50 of the first is 4.8-fold higher: 11 nM for the first, 2.3 nM for the second. The second is the more potent here.

`CCn1nc(-c2ccncc2)c(C(C)=O)c(Nc2cccc(Cl)c2)c1=O` [Example 31, 5-Acetyl-4-[(3-chlorophenyl)amino]-2-ethyl-6-pyridin-4-ylpyridazin-3(2H)-one] and `CCn1nc(-c2cccs2)c(C(C)=O)c(Nc2cccc(Cl)c2)c1=O` [Example 52, 5-Acetyl-4-[(3-chlorophenyl)amino]-2-ethyl-6-thien-2-ylpyridazin-3(2H)-one] are within 1.5-fold of each other in IC50: 4.5 nM for the first, 5.2 nM for the second.

`CCn1nc(-c2ccccc2)c(C(C)=O)c(Nc2cccc3[nH]ccc23)c1=O` [Example 69, 5-Acetyl-2-ethyl-4-(1H-indol-4-ylamino)-6-phenylpyridazin-3(2H)-one] and `CCn1nc(-c2ccccc2)c(C(C)=O)c(Nc2cccc3cnccc23)c1=O` [Example 84, 5-Acetyl-2-ethyl-4-(isoquinolin-5-ylamino)-6-phenylpyridazin-3(2H)-one] are within 1.5-fold of each other in IC50: 2 nM for the first, 2.6 nM for the second.

Compared with `CCn1nc(-c2ccccc2)c(C(C)=O)c(Nc2cccnc2)c1=O` [Example 63, 5-Acetyl-2-ethyl-6-phenyl-4-(pyridin-3-ylamino)pyridazin-3(2H)-one], `CCn1nc(-c2ccc(F)cc2)c(C(C)=O)c(Nc2cccnc2)c1=O` [Example 93, 5-Acetyl-6-(4-fluorophenyl)-2-ethyl 4-(pyridin-3-ylamino)-pyridazin-3(2H)-one] is 2.9-fold lower in IC50: 24 nM for the first, 8.3 nM for the second.

First: CCn1nc(-c2ccccc2)c(C(C)=O)c(Nc2cccc3ncccc23)c1=O [Example 82, 5-Acetyl-2-ethyl-6-phenyl-4-(quinolin-5-ylamino)pyridazin-3(2H)-one]
Second: CCn1nc(-c2ccccc2)c(C(C)=O)c(Nc2cccc3cccnc23)c1=O [Example 67, 5-Acetyl-2-ethyl-6-phenyl(quinolin-8-ylamino)pyridazin-3(2H)-one]
The IC50 of the first is 33-fold lower: 0.3 nM for the first, 10 nM for the second.

Going from `CCn1nc(-c2ccncc2)c(C(C)=O)c(Nc2ccccc2C)c1=O` [Example 33, 5-Acetyl-2-ethyl-4-[(2-methylphenyl)amino]-6-pyridin-4-ylpyridazin-3(2H)-one] to `CCn1nc(-c2ccncc2)c(C(C)=O)c(Nc2ccc(C(=O)O)cc2)c1=O` [Example 41, 4-[(5-acetyl-2-ethyl-3-oxo-6-pyridin-4-yl-2,3-dihydropyridazin-4-yl)amino]benzoic acid], the IC50 rises from 0.11 nM to 16 nM (150-fold).

Compound `CC(=O)c1c(-c2cccc(F)c2)nn(C(C)C)c(=O)c1Nc1cccnc1` [Example 91] has an IC50 of 9.4 nM.

Test system: not given
Assay: not given

Compound `CCn1nc(-c2cccc(C)c2)c(C(C)=O)c(Nc2cccc3ncccc23)c1=O` [Example 195, 5-Acetyl-2-ethyl-6-(3-methylphenyl)-4-(quinolin-5-ylamino)pyridazin-3(2H)-one] has a melting point of 245 to 246.1 °C.
